Results on 6 compounds are retold here after patent US20250129088A1, “CEREBLON E3 UBIQUITIN LIGASE INHIBITOR” (Gan & Lee Pharmaceuticals Co., Ltd., priority 2022, published 2025).

What all share (type): cell-based
In one assay the test system is HeLa cells. In words: HeLa cell proliferation inhibition, CCK-8. The following applies: Homo sapiens, 72 h, 3 days. The procedure: The complete medium required for HeLa cells is DMEM high glucose (Gibco, Product number: 11995-065) basal medium containing 10% fetal bovine serum. HeLa cells were seeded in a 96-well plate at a density of 4,000 cells/well, and the next day, different concentrations of the compound of the present invention and the positive control sample Ceritinib (source: Bide Pharmaceuticals) were prepared to treat the cells. The cells were incubated at 37° C., 5% CO2 cell culture incubator for 3 days. Cell viability was detected using the CCK-8 kit (Beyotime, Product number: C0040) according to the manufacturer's instructions. According to the inhibition rate, GraphPad Prism software was used to calculate the IC50 value of each compound for 3 days, and the results are shown in Table 2.

Another assay has as its system A549 cells. Nature of the assay: A549 cell proliferation inhibition, CCK-8. The following applies: Homo sapiens, 96 h, A549, 4 days. The procedure:
The complete medium required for A549 cells is F-12K (ATCC, Product number: 30-2004) basal medium containing 10% fetal bovine serum. A549 cells were seeded in a 96-well plate at a density of 2,800 cells/well, and the next day, different concentrations of the compound of the present invention and a positive control sample Ceritinib (source: Bide Pharmaceuticals) were prepared to treat the cells. The cells were incubated at 37° C., 5% CO2 cell incubator for 4 days. Cell viability was detected using the CCK-8 kit (Beyotime, Product number: C0040) according to the manufacturer's instructions. According to the inhibition rate, the GraphPad Prism software was used to calculate the IC50 value of each compound for 4 days, and the results are shown in Table 3.

A further assay concerns T-47D cells. Nature of the assay: T-47D cell proliferation inhibition, CCK-8. The following applies: Homo sapiens, T47D, 144 h, 6 days. The procedure: The complete medium required for T-47D cells is 1640 (ATCC, Product number: A10491-01) basal medium containing 10% fetal bovine serum. T-47D cells were seeded in a 96-well plate at a density of 3,000/well, and different concentrations of the compound of the present invention and the positive control sample ARV-471 (source: Innochem) were prepared to treat the cells. The cells were incubated at 37° C., 5% for 6 days in a CO2 cell incubator. Cell viability was detected using the CCK-8 kit (Beyotime, Product number: C0040) according to the manufacturer's instructions. According to the inhibition rate, the GraphPadPrism software was used to calculate the IC50 value of each compound for 6 days, and the results are shown in Table 17.

Another assay has as its system MCF-7 cells. In words: MCF-7 cell proliferation inhibition, CCK-8. The following applies: Homo sapiens, MCF7, 216 h, MCF-7, 9 days. How it is done:
The complete medium required for MCF-7 cells is DMEM (gibco, Product number: 11995-065) basal medium containing 10% fetal bovine serum. MCF-7 cells were seeded in a 96-well plate at a density of 800/well, and different concentrations of the compound of the present invention and the positive control sample ARV-471 (source: Enochem) were prepared to treat the cells. The cells were incubated at 37° C., 5% 9 days in a CO2 cell incubator. Cell viability was detected using the CCK-8 kit (Beyotime, Product number: C0040) according to the manufacturer's instructions. According to the inhibition rate, GraphPadPrism software was used to calculate the IC50 value of each compound for 9 days, and the results are shown in Table 18.

`Cc1cc(Nc2ncc(Cl)c(Nc3ccccc3S(=O)(=O)C(C)C)n2)c(OC(C)C)cc1C1CCN(CCOCCC(=O)N2CCC3(CC2)COc2cc4c(cc2C3)C(=O)N(C2CCC(=O)NC2=O)C4=O)CC1` (stereo not drawn) [PROTAC 30, 1-(3-(2-(4-(4-((5-chloro-4-((2-(isopropylsulfonyl)phenyl)amino)pyrimidin-2-yl)amino)-5-isopropoxy-2-methylphenyl)piperidin-1-yl)ethoxy)propionyl)-7′-(2,6-dioxopiperidin-3-yl)-2′H-spiro[piperidine-4,3′-pyrano[2,3-f]isoindole]-6′,8′(4′H,7′H)-dione]: the IC50 in the assay with HeLa cells came out at 3.09 µM; with A549 cells, 4.38 µM.

With `Cc1cc(Nc2ncc(Cl)c(Nc3ccccc3S(=O)(=O)C(C)C)n2)c(OC(C)C)cc1C1CCN(CCOCCC(=O)N2CCC3(CC2)COc2cc4c(cc23)C(=O)N(C2CCC(=O)NC2=O)C4=O)CC1` (stereo not drawn) [PROTAC 31, 1′-(3-(2-(4-(4-((5-chloro-4-((2-(isopropylsulfonyl)phenyl)amino)pyrimidin-2-yl)amino)-5-isopropoxy-2-methylphenyl)piperidin-1-yl)ethoxy)propionyl)-6-(2,6-dioxopiperidin-3-yl)-6-hydrogen-2H,5H-spiro[furo[2,3-f]isoindole-3,4′-piperidine]-5,7-dione], the IC50 in the assay with HeLa cells turned out to be 4.65 µM; in the assay with A549 cells, 10.2 µM.

Turning to `O=C1CCC(N2Cc3cc4c(cc3C2=O)CCC2(CN(C3CCC5(CC3)CCN(c3ccc([C@@H]6c7ccc(O)cc7CC[C@@H]6c6ccccc6)cc3)CC5)C2)O4)C(=O)N1` (stereo partly drawn) [PROTAC 52, 3-(1-(3-(4-((1R,2S)-6-hydroxy-2-phenyl-1,2,3,4-tetrahydronaphthalen-1-yl)phenyl)-3-azaspiro [5.5]undec-9-yl)-6′-oxo-3′,4′,6′,8′-tetrahydro-7′H-spiro[azetidine-3,2′-pyrano[2,3]isoindol]-7′-yl)piperidine-2,6-dione], the values for the half-inhibitory concentration (IC50) in the assay with T-47D cells and in the assay on MCF-7 cells were 0.0092 µM and 0.03 µM, respectively.

In the case of `O=C1CCC(N2Cc3cc4c(cc3C2=O)OC2(CC4)CN(C3CCC4(CC3)CN(c3ccc([C@@H]5c6ccc(O)cc6CC[C@@H]5c5ccccc5)cc3)C4)C2)C(=O)N1` (stereo partly drawn) [PROTAC 53, 3-(1-(2-(4-((1R,2S)-6-hydroxy-2-phenyl-1,2,3,4-tetrahydronaphthalen-1-yl)phenyl)-2-azaspiro [3.5]non-7-yl)-8′-oxo-3′,4′,6′,8′-tetrahydro-7′H-spiro[azetidine-3,2′-pyrano[2,3]isoindol]-7′-yl]piperidine-2,6-dione], the IC50 in the assay on T-47D cells turned out to be 0.0029 µM; in the assay with MCF-7 cells, 0.09 µM.

Consider `O=C1CCC(N2C(=O)c3cc4c(cc3C2=O)C2(CCN(C3CCC5(CC3)CCN(c3ccc([C@@H]6c7ccc(O)cc7CC[C@@H]6c6ccccc6)cc3)CC5)CC2)CO4)C(=O)N1` (stereo partly drawn) [PROTAC 54, 6-(2,6-dioxopiperidin-3-yl)-1′-(3-(4-((1R,2S)-6-hydroxy-2-phenyl-1,2,3,4-tetralin-1-yl)phenyl)-3-azaspiro[5.5]undec-9-yl)-6-hydrogen-2H,5H-spiro[furo[2,3-f]isoindole-3,4′-piperidine]-5,7-dione], for which the figures for the IC50 in the assay on T-47D cells and with MCF-7 cells were 0.068 µM and 0.17 µM, respectively.

In the case of `O=C1CCC(N2Cc3cc4c(cc3C2=O)CCC2(CN(C3CCC5(CC3)CN(c3ccc([C@@H]6c7ccc(O)cc7CC[C@@H]6c6ccccc6)cc3)C5)C2)O4)C(=O)N1` (stereo partly drawn) [PROTAC 55, 3-(1-(2-(4-((1R,2S)-6-hydroxy-2-phenyl-1,2,3,4-tetrahydronaphthalen-1-yl)phenyl)-2-azaspiro [3.5]non-7-yl)-6′-oxo-3′,4′,6′,8′-tetrahydro-7′H-spiro[azetidine-3,2′-pyrano[2,3-f]isoindol]-7′-yl)piperidine-2,6-dione], the IC50 with T-47D cells was 0.0066 µM; with MCF-7 cells, 0.04 µM.
